What was measured:
MV4-11 = test: Growth inhibition of human MV4-11 cells measured after 72 hrs; type: functional
[1] = molecular target: T1, Bromodomain-containing protein 4 (Homo sapiens, UniProt O60885); test: Inhibition of BRD4 bromodomain 1/2 (unknown origin) assessed as dissociation constant by DiscoveRx BROMOscan assay
[2] = molecular target: T1, Bromodomain-containing protein 4; test: Inhibition of BRD4 bromodomain 1/2 (unknown origin) by Alphascreen assay

GI50 (MV4-11) [µM] | Kd [1] [µM] | IC50 [2] [µM] | SMILES
1.7 | 0.21 |  | Cc1noc(C)c1-c1ccc2[nH]c(=O)cc(NCc3ccc(Cl)cc3)c2c1
14 | 7.4 | 3.1 | Cc1noc(C)c1-c1ccc2c(-c3ccccc3)cc(=O)[nH]c2c1
> 100 | 3.4 | 16 | Cc1noc(C)c1-c1ccc2[nH]c(=O)cc(O)c2c1
 | 0.57 |  | Cc1noc(C)c1-c1ccc2[nH]c(=O)cc(N3CCOCC3)c2c1
1.04 | 0.035 |  | COc1ccccc1CNc1cc(=O)[nH]c2ccc(-c3c(C)noc3C)cc12
1.4 | 0.17 |  | Cc1noc(C)c1-c1ccc2[nH]c(=O)cc(NCc3cc(Cl)cc(Cl)c3)c2c1
3.78 | 0.25 |  | Cc1noc(C)c1-c1ccc2[nH]c(=O)cc(NCC3CCCCC3)c2c1
1.58 | 0.095 |  | COc1cccc(CNc2cc(=O)[nH]c3ccc(-c4c(C)noc4C)cc23)c1
1.99 | 0.37 |  | Cc1noc(C)c1-c1ccc2[nH]c(=O)cc(N3CCCC3)c2c1
0.731 | 0.053 |  | Cc1noc(C)c1-c1ccc2[nH]c(=O)cc(NCc3cccc(Br)c3)c2c1
